The structures appear in SMILES notation. Read-outs that look alike come from different tables or passages of the source.

Consider 24 compounds from patent publication US20250002507A1, “7,8-DIHYDRO-5H-1,6-NAPHTHYRIDINE DERIVATIVES AS POSITIVE ALLOSTERIC MODULATORS OF THE MUSCARINIC ACETYLCHOLINE RECEPTOR M4 FOR TREATING NEUROLOGICAL AND PSYCHIATRIC DISORDERS” (Vanderbilt University, priority 2021, published 2025).

The assay has as its target T1, Human M4 (Homo sapiens, UniProt P08173).
T1 construct: expressed in transfected cells
T1 sequence (P08173 1-479): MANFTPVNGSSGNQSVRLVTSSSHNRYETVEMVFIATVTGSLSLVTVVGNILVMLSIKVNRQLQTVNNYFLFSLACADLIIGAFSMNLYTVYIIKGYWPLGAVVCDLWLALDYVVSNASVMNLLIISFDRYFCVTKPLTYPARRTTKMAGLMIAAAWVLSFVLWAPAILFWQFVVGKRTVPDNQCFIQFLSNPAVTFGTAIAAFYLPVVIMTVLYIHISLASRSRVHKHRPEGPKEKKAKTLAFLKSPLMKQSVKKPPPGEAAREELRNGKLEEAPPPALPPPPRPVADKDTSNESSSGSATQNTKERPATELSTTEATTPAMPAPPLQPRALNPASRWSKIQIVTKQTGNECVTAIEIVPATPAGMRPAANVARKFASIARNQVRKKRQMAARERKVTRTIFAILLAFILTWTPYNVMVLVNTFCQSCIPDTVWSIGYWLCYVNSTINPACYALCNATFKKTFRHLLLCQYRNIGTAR
The experiment in a line: mAChR M4 cell-based functional assay (calcium flux, potentiation of EC20 acetylcholine response), hM4-Gqi5 CHO-K1 cells. Particulars: for Emax at 30 µM / Emax: CHO-K1; for Emax at 30 µM: % ACh maximum at 30 μM; for EC50: calcium flux, read-out: Human M4 EC50. The procedure, abridged:
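Positive allosteric modulation was scored as a concentration-dependent rise in the response to an EC20 dose of acetylcholine, added 144 s after the compound. Human M4-Gqi5 CHO-K1 cells carried Fluo-4 dye, and compounds ran as 11-point, 3-fold dilution series. EC50 and Emax came from four-parameter logistic fits of the FDSS fluorescence-ratio traces.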
Background: Calcium flux is commonly read through the fluorescence of an indicator in the cells.

Where [1] appears, read: hM4-Gqi5 CHO-K1 cells, PAM of EC20 acetylcholine.
Setting [2] is: Table 4, Human M4, read-out: Emax (% ACh maximum at 30 μM).
Setting [3] is: Table 4, potentiation of EC20 acetylcholine response, CHO-K1 cells.
[4] abbreviates: Table 3, Human M4, read-out: Emax (% ACh maximum at 30 μM).
Where [5] appears, read: Table 3, potentiation of EC20 acetylcholine response, CHO-K1 cells.

For `Cc1c(N2CCc3ncc(-c4cc[nH]c4)cc3C2)nn2cnnc2c1C` [Compound 101, 6-(7,8-dimethyl-[1,2,4]triazolo[4,3-b]pyridazin-6-yl)-3-(1H-pyrrol-3-yl)-7,8-dihydro-5H-1,6-naphthyridine], the Emax at 30 µM (human M4, read-out: Emax) worked out at 98%. In addition, under setting [1], the concentration giving a half-maximal response (EC50) was 389 nM.
For `Cc1cc2nccn2nc1N1CCc2ncc(-c3cn(C)nc3C)cc2C1` [Compound 108, 3-(1,3-dimethylpyrazol-4-yl)-6-(7-methylimidazo[1,2-b]pyridazin-6-yl)-7,8-dihydro-5H-1,6-naphthyridine] the same measures were 85% and 399 nM.
For `Cc1cnccc1Nc1cnc2c(c1)CN(c1nn3cnnc3cc1C)CC2` [Compound 364, 6-(7-methyl-[1,2,4]triazolo[4,3-b]pyridazin-6-yl)-N-(3-methylpyridin-4-yl)-5,6,7,8-tetrahydro-1,6-naphthyridin-3-amine], the Emax at 30 µM under setting [2] turned out to be 83%. In addition, the EC50 under setting [3] amounted to 2500 nM.
In the case of `COc1ccc(C(=O)Nc2cnc3c(c2)CN(c2nn4cnnc4c(C)c2C)CC3)cn1` [Compound 155, N-(6-(7,8-dimethyl-[1,2,4]triazolo[4,3-b]pyridazin-6-yl)-5,6,7,8-tetrahydro-1,6-naphthyridin-3-yl)-6-methoxynicotinamide], the Emax at 30 µM under setting [4] amounted to 92%. Also, under setting [5], the EC50 amounted to 966 nM.
Take `Cc1c(N2CCc3ncc(Nc4cc(F)ccc4F)cc3C2)nn2c(C)nnc2c1C` [Compound 84, N-(2,5-difluorophenyl)-6-(3,7,8-trimethyl-[1,2,4]triazolo[4,3-b]pyridazin-6-yl)-7,8-dihydro-5H-1,6-naphthyridin-3-amine]: under “human M4, read-out: Emax”, the Emax at 30 µM is 99%. Besides, the EC50 under setting [1] stood at 210 nM.
Turning to `Cc1nn(C)cc1-c1cnc2c(c1)CN(c1nn3c(C)nnc3c(C)c1C)CC2` [Compound 88, 3-(1,3-dimethylpyrazol-4-yl)-6-(3,7,8-trimethyl-[1,2,4]triazolo[4,3-b]pyridazin-6-yl)-7,8-dihydro-5H-1,6-naphthyridine], the Emax at 30 µM (human M4, read-out: Emax) came out at 97%. Moreover, the EC50 under setting [1] is 195 nM.
In the case of `Cc1cnccc1Nc1cnc2c(c1)CN(c1nn3cnnc3c(C)c1C)CC2` [Compound 365, 6-(7,8-dimethyl-[1,2,4]triazolo[4,3-b]pyridazin-6-yl)-N-(3-methylpyridin-4-yl)-5,6,7,8-tetrahydro-1,6-naphthyridin-3-amine], under setting [2], the Emax at 30 µM is 63%. Besides, under setting [3], the EC50 amounted to 112 nM.
`Cc1ccc(Nc2cnc3c(c2)CN(c2nn4cnnc4c(C)c2C)CC3)c(F)c1` [Compound 48, 6-(7,8-dimethyl-[1,2,4]triazolo[4,3-b]pyridazin-6-yl)-N-(2-fluoro-4-methyl-phenyl)-7,8-dihydro-5H-1,6-naphthyridin-3-amine]: the Emax at 30 µM (human M4, read-out: Emax) amounted to 80%. Also, the EC50 under setting [1] was found to be 147 nM.
On the same counts, the results for `Cc1nn(C)cc1-c1cnc2c(c1)CN(c1nn3c(C(F)(F)F)nnc3c(C)c1C)CC2` [Compound 94, 3-(1,3-dimethylpyrazol-4-yl)-6-[7,8-dimethyl-3-(trifluoromethyl)-[1,2,4]triazolo[4,3-b]pyridazin-6-yl]-7,8-dihydro-5H-1,6-naphthyridine] are 100% and 175 nM.
As for `Cc1cnc2c(c1)CN(c1nn3cnnc3c(C)c1C)CC2` [Compound 5, 6-(7,8-Dimethyl-[1,2,4]triazolo[4,3-b]pyridazin-6-yl)-3-methyl-7,8-dihydro-5H-1,6-naphthyridine], the Emax was 95%. Further, the EC50 under setting [1] turned out to be 230 nM.
For the compound `Cc1c(N2CCc3ncc(NC(=O)C4COC4)cc3C2)nn2cnnc2c1C` [Compound 15, N-[6-(7,8-Dimethyl-[1,2,4]triazolo[4,3-b]pyridazin-6-yl)-7,8-dihydro-5H-1,6-naphthyridin-3-yl]oxetane-3-carboxamide], the Emax is 68%. For the same compound, the concentration for a half-maximal effect (EC50) under setting [1] came out at 5870 nM.
Regarding `Cc1c(N2CCc3ncc(-c4ccc(C(F)(F)F)nc4)cc3C2)nn2c(C(F)(F)F)nnc2c1C` [Compound 259, 6-(7,8-dimethyl-3-(trifluoromethyl)-[1,2,4]triazolo[4,3-b]pyridazin-6-yl)-3-(6-(trifluoromethyl)pyridin-3-yl)-5,6,7,8-tetrahydro-1,6-naphthyridine], the Emax at 30 µM under setting [4] was 55%. Under setting [5], the EC50 was found to be 1450 nM.
Turning to `Cc1c(N2CCc3ncc(C(F)(F)F)cc3C2)nn2c(C(F)(F)F)nnc2c1C` [Compound 321, 6-(7,8-dimethyl-3-(trifluoromethyl)-[1,2,4]triazolo[4,3-b]pyridazin-6-yl)-3-(trifluoromethyl)-5,6,7,8-tetrahydro-1,6-naphthyridine], the Emax at 30 µM under setting [2] amounted to 72%. The EC50 under setting [3] is 270 nM.
Regarding `Cc1c(N2CCc3ncc(Oc4ccc(F)cc4F)cc3C2)nn2cnnc2c1C` [Compound 302, 3-(2,4-difluorophenoxy)-6-(7,8-dimethyl-[1,2,4]triazolo[4,3-b]pyridazin-6-yl)-5,6,7,8-tetrahydro-1,6-naphthyridine], under setting [4], the Emax at 30 µM stood at 93%. Moreover, under setting [5], the EC50 amounted to 177 nM.
For `Cc1c(N2CCc3ncc(-c4ccc(N5CCOCC5)nc4)cc3C2)nn2cnnc2c1C` [Compound 186, 4-(5-(6-(7,8-dimethyl-[1,2,4]triazolo[4,3-b]pyridazin-6-yl)-5,6,7,8-tetrahydro-1,6-naphthyridin-3-yl)pyridin-2-yl)morpholine] the same measures were 100% and 142 nM.
As to `Cc1c(N2CCc3ncc(C(F)(F)F)cc3C2)nn2c(Cl)nnc2c1C` [Compound 268, 6-(3-Chloro-7,8-dimethyl-[1,2,4]triazolo[4,3-b]pyridazin-6-yl)-3-(trifluoromethyl)-7,8-dihydro-5H-1,6-naphthyridine], the Emax at 30 µM under setting [4] was 95%. In addition, under setting [5], the EC50 was determined as 143 nM.
Regarding `Cc1cc2nccn2nc1N1CCc2ncc(-c3cnn(C)c3)cc2C1` [Compound 141, 6-(7-methylimidazo[1,2-b]pyridazin-6-yl)-3-(1-methylpyrazol-4-yl)-7,8-dihydro-5H-1,6-naphthyridine], the Emax at 30 µM (human M4, read-out: Emax) came out at 91%. Besides, the EC50 under setting [1] was determined as 583 nM.
For `Cc1c(N2CCc3ncc(-c4cnn(C5CCNCC5)c4)cc3C2)nn2cnnc2c1C` [Compound 148, 6-(7,8-dimethyl-[1,2,4]triazolo[4,3-b]pyridazin-6-yl)-3-[1-(4-piperidyl)pyrazol-4-yl]-7,8-dihydro-5H-1,6-naphthyridine] the same measures were 106% and 296 nM.
Turning to `Cc1c(N2CCc3nnc(Cl)cc3C2)nn2c(C(F)(F)F)nnc2c1C` [Compound 283, 3-chloro-6-(7,8-dimethyl-3-(trifluoromethyl)-[1,2,4]triazolo[4,3-b]pyridazin-6-yl)-5,6,7,8-tetrahydropyrido[4,3-c]pyridazine], the Emax at 30 µM under setting [4] came out at 89%. The EC50 under setting [5] is 2170 nM.
On to `Cc1c(N2CCc3ncc(N4CCOC[C@H]4C)cc3C2)nn2c(C(F)(F)F)nnc2c1C` [Compound 314, (R)-4-(6-(7,8-dimethyl-3-(trifluoromethyl)-[1,2,4]triazolo[4,3-b]pyridazin-6-yl)-5,6,7,8-tetrahydro-1,6-naphthyridin-3-yl)-3-methylmorpholine], for which the Emax at 30 µM under setting [2] was found to be 98%. Moreover, the concentration giving a half-maximal response (EC50) under setting [3] came to 321 nM.
Turning to `Cc1c(N2CCc3ncc(-c4ccc(C5CC5)nc4)cc3C2)nn2cnnc2c1C` [Compound 38, 3-(6-cyclopropyl-3-pyridyl)-6-(7,8-dimethyl-[1,2,4]triazolo[4,3-b]pyridazin-6-yl)-7,8-dihydro-5H-1,6-naphthyridine], the Emax at 30 µM (human M4, read-out: Emax) amounted to 90%. Further, the EC50 under setting [1] worked out at 149 nM.
Consider `COc1ncc(F)cc1-c1cnc2c(c1)CN(c1nn3cnnc3c(C)c1C)CC2` [Compound 179, 6-(7,8-dimethyl-[1,2,4]triazolo[4,3-b]pyridazin-6-yl)-3-(5-fluoro-2-methoxypyridin-3-yl)-5,6,7,8-tetrahydro-1,6-naphthyridine], for which the Emax at 30 µM under setting [4] is 84%. Moreover, under setting [5], the EC50 came out at 906 nM.
For `Cc1c(N2CCc3ncc(C(=O)N4CCCC4)cc3C2)nn2c(C(F)(F)F)nnc2c1C` [Compound 227, (6-(7,8-dimethyl-3-(trifluoromethyl)-[1,2,4]triazolo[4,3-b]pyridazin-6-yl)-5,6,7,8-tetrahydro-1,6-naphthyridin-3-yl)(pyrrolidin-1-yl)methanone] the same measures were 76% and 6410 nM.
For the compound `Cc1c(N2CCc3ncc(Cc4ccccc4F)cc3C2)nn2c(C(F)(F)F)nnc2c1C` [Compound 309, 6-(7,8-dimethyl-3-(trifluoromethyl)-[1,2,4]triazolo[4,3-b]pyridazin-6-yl)-3-(2-fluorobenzyl)-5,6,7,8-tetrahydro-1,6-naphthyridine], under setting [2], the Emax at 30 µM amounted to 83%. Under setting [3], the EC50 worked out at 1410 nM.

The Emax is the maximal effect, on the per cent scale that the assay sets. What is called EC50 is the concentration at which the effect is half-maximal.
